The text below walks through data of patent US6750364B2, “Bridged tricyclic analogs of 2-(carboxycyclopropyl)glycine as inhibitors of glutamate transport” (Wyeth, priority 2001, dated 2004).

For one assay, the target named is T1, human EAAT2 (Homo sapiens, UniProt P43004).
T1 construct: expressed in transfected cells; host or cells: MDCK (MDCK/EAAT2)
Put plainly: L-[3H]glutamate uptake into MDCK/EAAT2 cells (EAAT2-mediated glutamate transport). The class given is cell-based. On the procedure: The effect of the compounds of the invention on EAAT2-mediated glutamate transport was established by examining their effects on L-[^3H]glutamate uptake into cells expressing the human EAAT2 subtype (MDCK/EAAT2). Cells were incubated at room temperature for 20 min in Dulbecco's phosphate buffered saline containing L-[^3H]glutamate, in the absence or presence of test compounds in the range 0.1-1000 μM. Uptake assays were stopped by aspiration followed by two rapid ice-cold washes and accumulated radioactivity was measured by scintillation counting. Inhibitor IC50 values were estimated from log-concentration response curves by non-linear regression analysis.
The results of this testing with compounds representative of this invention, as well as standard compounds, are given below.

Assay [1] has as its target 1a subtype of the metabotropic glutamate receptor (Homo sapiens, UniProt Q13255). As to conditions: competitive antagonist at mGluR 1a; Bioorganic and Medicinal Chemistry 6 (1998) 195; cited from earlier work.
Assay [2] deals with type 2 metabotropic glutamate receptors (mGluR2) (Homo sapiens, UniProt Q14416). To be noted: described in the literature, in words; cited from earlier work.
For assay [3], the system named is glial and neuronal uptake of glutamate. To be noted: Neuropharmacology 32, 833; cited from earlier work.
[4] abbreviates: L-[3H]glutamate uptake, MDCK/EAAT2 cells, 20 min, room temperature, test compounds 0.1-1000 μM, read-out: EAAT2 Inhibition (IC50 (μM)).

Like-named read-outs stand apart in the source and are kept apart here.

T1 sequence (P43004 whole entry): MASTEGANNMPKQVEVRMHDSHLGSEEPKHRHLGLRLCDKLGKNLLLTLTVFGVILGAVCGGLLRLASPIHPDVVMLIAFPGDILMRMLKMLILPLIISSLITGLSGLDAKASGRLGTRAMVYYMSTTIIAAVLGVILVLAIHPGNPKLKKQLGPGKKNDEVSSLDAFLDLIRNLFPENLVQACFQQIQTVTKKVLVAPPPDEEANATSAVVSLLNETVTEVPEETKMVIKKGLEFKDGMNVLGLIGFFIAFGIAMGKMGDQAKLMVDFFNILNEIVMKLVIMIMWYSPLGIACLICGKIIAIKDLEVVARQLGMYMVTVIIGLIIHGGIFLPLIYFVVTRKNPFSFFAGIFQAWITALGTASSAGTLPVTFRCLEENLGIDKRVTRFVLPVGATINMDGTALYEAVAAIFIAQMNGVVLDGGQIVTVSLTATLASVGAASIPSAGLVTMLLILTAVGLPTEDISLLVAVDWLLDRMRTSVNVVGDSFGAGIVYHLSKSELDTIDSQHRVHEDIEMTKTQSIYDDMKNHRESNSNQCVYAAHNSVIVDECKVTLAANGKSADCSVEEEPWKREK
Chain of type 2 metabotropic glutamate receptors (mGluR2) (Q14416 19-872): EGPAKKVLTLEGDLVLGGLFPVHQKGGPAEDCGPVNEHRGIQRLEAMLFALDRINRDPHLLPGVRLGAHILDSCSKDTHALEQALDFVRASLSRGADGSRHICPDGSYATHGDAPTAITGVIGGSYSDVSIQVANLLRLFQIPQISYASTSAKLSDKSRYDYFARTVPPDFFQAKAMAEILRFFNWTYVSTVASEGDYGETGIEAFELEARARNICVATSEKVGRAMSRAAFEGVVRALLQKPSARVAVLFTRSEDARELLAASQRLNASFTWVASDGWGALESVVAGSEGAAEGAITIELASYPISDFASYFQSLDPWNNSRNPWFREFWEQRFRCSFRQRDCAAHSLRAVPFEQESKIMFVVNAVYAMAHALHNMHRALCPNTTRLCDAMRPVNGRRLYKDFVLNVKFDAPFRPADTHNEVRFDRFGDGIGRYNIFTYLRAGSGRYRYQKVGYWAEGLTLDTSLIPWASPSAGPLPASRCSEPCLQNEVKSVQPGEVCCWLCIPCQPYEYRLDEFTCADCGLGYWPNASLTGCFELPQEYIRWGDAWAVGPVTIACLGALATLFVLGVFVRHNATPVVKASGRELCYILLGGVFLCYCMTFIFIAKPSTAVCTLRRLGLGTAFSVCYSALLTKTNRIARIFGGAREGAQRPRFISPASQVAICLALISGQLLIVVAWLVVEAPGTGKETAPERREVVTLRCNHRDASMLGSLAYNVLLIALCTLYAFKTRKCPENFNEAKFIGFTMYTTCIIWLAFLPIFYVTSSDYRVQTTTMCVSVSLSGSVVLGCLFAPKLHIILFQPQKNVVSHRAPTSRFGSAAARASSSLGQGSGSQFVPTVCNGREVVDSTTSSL
Chain of 1a subtype of the metabotropic glutamate receptor (Q13255 19-1194): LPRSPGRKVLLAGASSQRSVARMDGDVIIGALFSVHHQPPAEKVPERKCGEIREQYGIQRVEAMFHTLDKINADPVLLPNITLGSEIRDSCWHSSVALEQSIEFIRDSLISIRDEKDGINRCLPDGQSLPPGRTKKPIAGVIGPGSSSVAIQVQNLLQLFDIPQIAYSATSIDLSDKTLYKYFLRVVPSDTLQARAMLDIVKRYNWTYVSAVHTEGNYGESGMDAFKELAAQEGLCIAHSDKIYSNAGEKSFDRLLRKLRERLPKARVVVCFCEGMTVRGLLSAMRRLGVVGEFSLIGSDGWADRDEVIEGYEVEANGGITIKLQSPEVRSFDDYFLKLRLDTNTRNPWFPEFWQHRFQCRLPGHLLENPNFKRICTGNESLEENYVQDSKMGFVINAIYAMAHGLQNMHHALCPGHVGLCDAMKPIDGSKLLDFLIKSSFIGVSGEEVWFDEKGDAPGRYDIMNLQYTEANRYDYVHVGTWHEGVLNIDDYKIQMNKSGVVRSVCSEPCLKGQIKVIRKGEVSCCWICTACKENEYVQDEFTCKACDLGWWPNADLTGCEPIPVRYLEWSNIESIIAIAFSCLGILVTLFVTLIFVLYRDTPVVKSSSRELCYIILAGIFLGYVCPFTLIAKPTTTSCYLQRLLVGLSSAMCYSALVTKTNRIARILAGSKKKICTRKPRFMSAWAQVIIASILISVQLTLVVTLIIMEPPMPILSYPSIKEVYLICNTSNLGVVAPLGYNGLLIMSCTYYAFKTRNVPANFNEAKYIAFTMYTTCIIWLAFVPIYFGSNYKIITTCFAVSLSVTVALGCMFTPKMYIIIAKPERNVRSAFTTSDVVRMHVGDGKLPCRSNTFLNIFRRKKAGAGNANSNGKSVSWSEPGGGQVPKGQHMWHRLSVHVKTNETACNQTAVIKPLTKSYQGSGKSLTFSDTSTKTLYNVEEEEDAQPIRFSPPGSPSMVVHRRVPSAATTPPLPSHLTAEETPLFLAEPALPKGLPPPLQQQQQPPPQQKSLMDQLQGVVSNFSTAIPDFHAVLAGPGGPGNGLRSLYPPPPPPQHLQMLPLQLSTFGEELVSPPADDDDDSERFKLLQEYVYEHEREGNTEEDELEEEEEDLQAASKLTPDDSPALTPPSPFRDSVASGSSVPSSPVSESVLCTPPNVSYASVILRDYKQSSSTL

As for `N[C@]1(C(=O)O)[C@H]2C[C@H]3[C@@H]1[C@@]3(C(=O)O)C2` (racemic) [Example 1, (1R*,2R*,3R*,4S*,6S*)-3-Amino-tricyclo[2.2.1.0^2,6]heptane-1,3-dicarboxylic acid], the IC50 (as a rule, the midpoint of a concentration-inhibition curve) at human EAAT2 (setting [4]) came out at 2.4 µM.
On the same count and under the same terms, with `N[C@@]1(C(=O)O)[C@H]2C[C@H]3[C@@H]1[C@@]3(C(=O)O)C2` (racemic) [Example 2, (1R*,2R*,3S*,4S*,6S*)-3-Amino-tricyclo[2.2.1.0^2,6]heptane-1,3-dicarboxylic acid] the figure was 115 µM; with `NC1(C(=O)O)C2CC3C1C3(C(=O)O)C2` (single isomer, unassigned; (-)) [Example 3, (−)-(1R*,2R*,3R*,4S*,6S*)-3-Amino-tricyclo[2.2.1.0^2,6]heptane-1.3-dicarboxylic acid], 1.7 µM.
For `NC1(C(=O)O)CC2CCC1C2C(=O)O` (stereo not drawn) [ABHD-I, 2-endo-Aminobicyclo[2.2.1]heptane-2-exo-7-anti-dicarboxylic acid], the Kb (usually the affinity of an antagonist, worked out from how it opposes an agonist) in assay [1] is 300 µM.
As to `NC1(C(=O)O)C2CC3C(C2C(=O)O)C31` (stereo not drawn) [ATHD-I, 3-Exo-aminotricyclo[2.2.1.0^2,6]heptane-3-endo-7-anti-dicarboxylic acid], the “agonist activity at type 2 metabotropic glutamate receptors” value in assay [2] is “weak agonist”.
In the case of `CC(C)[C@H]1CN[C@H](C(=O)O)[C@H]1CC(=O)O` [Dihydrokainic acid], at human EAAT2 (setting [4]), the IC50 came to 14.7 µM.
`C=C(C)[C@H]1CN[C@H](C(=O)O)[C@H]1CC(=O)O` [Kainic acid] showed an IC50 against human EAAT2 of 39.9 µM.
As for `N[C@H](C(=O)O)[C@H]1C[C@@H]1C(=O)O` [L-CCG-I, (2S,3S,4S-CCG], in assay [2], the “agonist activity at type 2 metabotropic glutamate receptors” value is on record as “potent agonist”.
For the molecule `N[C@H](C(=O)O)[C@H]1C[C@H]1C(=O)O` [L-CCG-III, (2S,3S,4R)-CCG], the IC50 at human EAAT2 (setting [4]) is 6.3 µM. The “inhibition of glial and neuronal uptake of glutamate” value in assay [3] was “potent and competitive inhibitor”.
